# Results published in PubChem BioAssay (NCI).
#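 Dose response: 5 concentrations. Exposure: 48 h. Format: 96-well plates. Endpoint: linear interpolation; highest concentration if not reached. GI50 = concentration required for 50% inhibition of growth. TGI: concentration producing complete growth inhibition.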
# How the values were obtained:
# Test in all cases: growth of human tumour cells (NCI), 48 h
# [1] = test system: 786-0 renal
# [2] = test system: SNB-75 CNS
# [3] = test system: SF-295 CNS
# [4] = test system: OVCAR-4 ovarian
# [5] = test system: BT-549 breast
# [6] = test system: CAKI-1 renal
# [7] = test system: SF-268 CNS
# [8] = test system: UO-31 renal
# [9] = test system: SK-MEL-28 melanoma
# [10] = test system: OVCAR-5 ovarian
# [11] = test system: SN12C renal
# [12] = test system: SR leukemia
# [13] = test system: PC-3 prostate
# [14] = test system: UACC-62 melanoma
# [15] = test system: ACHN renal
# [16] = test system: NCI-H226 lung
# [17] = test system: SF-539 CNS
# [18] = test system: MOLT-4 leukemia
# [19] = test system: A549 NSCLC
# [20] = test system: NCI-H460 lung
# [21] = test system: A498 renal
# [22] = test system: HL-60(TB) leukemia
# [23] = test system: EKVX NSCLC
# [24] = test system: UACC-257 melanoma
# [25] = test system: M14 melanoma
# [26] = test system: HT29 colon
# [27] = test system: KM12 colon
# [28] = test system: SK-MEL-5 melanoma
# [29] = test system: LOX IMVI melanoma
# [30] = test system: CCRF-CEM leukemia
# [31] = test system: TK-10 renal
# [32] = test system: OVCAR-3 ovarian
# [33] = test system: MALME-3M melanoma
# [34] = test system: SW-620 colon
# [35] = test system: COLO 205 colon
# [36] = test system: NCI/ADR-RES ovarian
# [37] = test system: HS 578T breast
# [38] = test system: SK-OV-3 ovarian
# [39] = test system: NCI-H23 lung
# [40] = test system: K-562 leukemia
# [41] = test system: MDA-MB-435
# [42] = test system: HCT-116 colon
# [43] = test system: HCT-15 colon
# [44] = test system: RPMI-8226 leukemia
# [45] = test system: DU-145 prostate
# [46] = test system: T-47D breast
# [47] = test system: MDA-MB-231 breast
# [48] = test system: HCC-2998 colon
compound,measurement,setting,value
COc1cc2nc(Cl)nc(Nc3cccc(C4=Nc5c(N)nc(N)nc5NC(c5ccc(F)cc5)C4)c3)c2cc1OC (stereo unspecified),GI50,[1],1.56 µM
same,TGI,[1],2.99 µM
same,GI50,[2],1.13 µM
same,TGI,[2],2.42 µM
same,GI50,[3],1.82 µM
same,TGI,[3],3.5 µM
same,GI50,[4],1.63 µM
same,TGI,[4],3.38 µM
same,GI50,[5],2.29 µM
same,TGI,[5],4.36 µM
same,GI50,[6],1.61 µM
same,TGI,[6],3.27 µM
same,GI50,[7],1.68 µM
same,TGI,[7],3.68 µM
same,GI50,[8],1.55 µM
same,TGI,[8],3.54 µM
same,GI50,[9],1.62 µM
same,TGI,[9],3.04 µM
same,GI50,[10],1.79 µM
same,TGI,[10],3.55 µM
same,GI50,[11],1.72 µM
same,TGI,[11],3.48 µM
same,GI50,[12],1.96 µM
same,TGI,[12],4.8 µM
same,GI50,[13],2.17 µM
same,TGI,[13],6.68 µM
same,GI50,[14],1.76 µM
same,TGI,[14],3.31 µM
same,GI50,[15],1.74 µM
same,TGI,[15],3.22 µM
same,GI50,[16],3.22 µM
same,TGI,[16],16.6 µM
same,GI50,[17],1.53 µM
same,TGI,[17],2.93 µM
same,GI50,[18],1.77 µM
same,TGI,[18],5.45 µM
same,GI50,[19],2.64 µM
same,TGI,[19],7.82 µM
same,GI50,[20],1.91 µM
same,TGI,[20],3.82 µM
same,GI50,[21],1.01 µM
same,TGI,[21],2.47 µM
same,GI50,[22],1.95 µM
same,TGI,[22],4.09 µM
same,GI50,[23],1.5 µM
same,TGI,[23],3.99 µM
same,GI50,[24],1.96 µM
same,TGI,[24],3.94 µM
same,GI50,[25],1.86 µM
same,TGI,[25],3.7 µM
same,GI50,[26],2.05 µM
same,TGI,[26],4.38 µM
same,GI50,[27],1.88 µM
same,TGI,[27],3.61 µM
same,GI50,[28],1.65 µM
same,TGI,[28],3.02 µM
same,GI50,[29],1.78 µM
same,TGI,[29],3.51 µM
same,GI50,[30],1.05 µM
same,TGI,[30],4.14 µM
same,GI50,[31],1.95 µM
same,TGI,[31],3.86 µM
same,GI50,[32],1.85 µM
same,TGI,[32],3.55 µM
same,GI50,[33],2.01 µM
same,TGI,[33],3.76 µM
same,GI50,[34],1.76 µM
same,TGI,[34],3.6 µM
same,GI50,[35],1.77 µM
same,TGI,[35],3.51 µM
same,GI50,[36],6.07 µM
same,TGI,[36],> 100 µM
same,GI50,[37],1.98 µM
same,TGI,[37],4.53 µM
same,GI50,[38],25.7 µM
same,TGI,[38],59.3 µM
same,GI50,[39],2 µM
same,TGI,[39],4.73 µM
same,GI50,[40],1.96 µM
same,TGI,[40],4.68 µM
same,GI50,[41],1.66 µM
same,TGI,[41],3.11 µM
same,GI50,[42],1.76 µM
same,TGI,[42],3.34 µM
same,GI50,[43],1.96 µM
same,TGI,[43],4.27 µM
same,GI50,[44],1.77 µM
same,TGI,[44],4.42 µM
same,GI50,[45],1.77 µM
same,TGI,[45],3.44 µM
same,GI50,[46],1.93 µM
same,TGI,[46],4.64 µM
same,GI50,[47],1.49 µM
same,TGI,[47],3.03 µM
same,GI50,[48],1.92 µM
same,TGI,[48],3.48 µM
